What was measured:
[1] = target: T1, Vitamin D3 receptor (Rattus norvegicus) (UniProt P13053); assay: Percent relative binding affinity for vitamin D receptor VDR; assay type: functional
T1 sequence (whole entry): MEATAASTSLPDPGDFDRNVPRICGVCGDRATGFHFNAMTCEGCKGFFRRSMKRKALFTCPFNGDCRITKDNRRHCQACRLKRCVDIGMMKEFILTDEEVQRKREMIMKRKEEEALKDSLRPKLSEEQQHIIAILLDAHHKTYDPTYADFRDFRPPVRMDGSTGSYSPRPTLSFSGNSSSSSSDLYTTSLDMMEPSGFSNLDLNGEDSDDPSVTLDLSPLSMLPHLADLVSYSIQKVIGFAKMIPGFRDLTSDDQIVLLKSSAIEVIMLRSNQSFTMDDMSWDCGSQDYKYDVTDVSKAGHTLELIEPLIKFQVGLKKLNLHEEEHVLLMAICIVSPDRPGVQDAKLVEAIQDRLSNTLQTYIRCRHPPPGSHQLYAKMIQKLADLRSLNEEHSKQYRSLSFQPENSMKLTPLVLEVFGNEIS

[2] = target: T1, Vitamin D3 receptor (Rattus norvegicus); assay: In vitro vitamin D receptor-mediated transcriptional activity in rat osteosarcoma ROS 17/2.8 cells

SMILES	RBA [1]	ED50 [2]
C=C1/C(=C\C=C2/CCC[C@]3(C)C([C@H](C)CCC/C(=N\OC)C(C)(C)C)=CC[C@@H]23)C[C@H](O)C[C@H]1O	< 3%	2 nM
C=C1/C(=C\C=C2/CCC[C@]3(C)C([C@H](C)CCCC(=O)C(C)(C)C)=CC[C@@H]23)C[C@H](O)C[C@H]1O	35%	0.1 nM
C=C1/C(=C\C=C2/CCC[C@]3(C)C([C@H](C)CCC/C(=N\O)C(C)(C)C)=CC[C@@H]23)C[C@H](O)C[C@H]1O	3%	10 nM
C=C1/C(=C\C=C2/CCC[C@]3(C)[C@@H]([C@H](C)CCCC(C)(C)O)CC[C@@H]23)C[C@@H](O)C[C@@H]1O		0.4 nM
